In patent US12384800B2, “Antitumoral compounds” (priority 2017, dated 2025):

Experiments:
MDA-MB-231 tumors = assay: Human breast xenograft, tumor volume
Procedure: (§1) Female athymic nu/nu mice (Harlan Laboratories Models, S.L. Barcelona, Spain or Envigo, Spain) were utilized for all experiments. Animal were housed in individually ventilated cages Sealsafe® Plus, Techniplast S.P.A.), up to ten per cage on a 12-hour light-dark cycle at 21-23° C. and 40-60% humidity. […] Animals were acclimated for at least 5 days prior to tumor implantation with a tumor cell suspension.
MDA-MB-231 cells were maintained in vitro at 37° C. with 5% CO2 in Dulbecco's Modified Eagle's Medium (Sigma-Aldrich, Co). Culture cells were passaged every 3 to 5 days upon reaching confluence.
(§2) Treatment tolerability was assessed by monitoring body weight evolution, clinical signs of systemic toxicity, as well as evidences of local damage in the injection site.
(§3) In Xenograft Studies with Other Cell Lines: • Tumor volume was calculated using the equation (a·b^2)/2, where a: length (longest diameter) and b: width (shortest diameter) were measured in mm by using digital caliper (Fowler Sylvac, S235PAT).
(§4) Treatments producing >20% lethality and/or 20% net body weight loss were considered toxic.

A2780 tumors = assay: Human ovarian xenograft, tumor volume
Procedure: as §1
Culture cells were passaged every 3 to 5 days upon reaching confluence. Each animal was subcutaneously implanted (on the right flank using 26G needle and a 1 cc syringe) at 4-6 weeks of age with 10×10^6 A2780 cells suspended in 0.05 mL of a solution consisting of 50% Matrigel® (Corning Incorporated Life Sciences) and 50% medium without serum or antibiotics.
as §2, §3, §4

HGC27 tumors = assay: Human gastric xenograft, tumor volume
Procedure: as §1
HGC27 cells were maintained in vitro at 37° C. with 5% CO2 in Iscove's Modified Dulbecco's Medium (Sigma Aldrich, Co). Culture cells were passage every 3 to 5 days on reaching confluence. Each animal was subcutaneously implanted (on the right flank using 26G needle and a 1 cc syringe) at 4-6 weeks of age with 5×10^6 HGC-27 cells suspended in 0.05 mL of a solution consisting of 50% Matrigel® (Corning Incorporated Life Sciences), 50% medium without serum or antibiotics.
as §2, §3, §4

HT1080 tumors = assay: Human fibrosarcoma xenograft, total diameter (tumor + leg)
H460 tumors = assay: Human lung (NSCLC) xenograft, tumor volume
Procedure: as §1
H460 cells were maintained in vitro at 37° C. with 5% CO2 in Dulbecco's Modified Eagle's Medium (Sigma-Aldrich, Co). Culture cells were passaged every 3 to 5 days upon reaching confluence. Each animal was subcutaneously implanted (on the right flank using 26G needle and a 1 cc syringe) at 4-6 weeks of age with 5×10^6 H460 cells suspended in 0.05 mL of a solution consisting of 50% Matrigel® (Corning Incorporated Life Sciences) and 50% medium without serum or antibiotics.
as §2, §3, §4
Tables and figures summarize the data obtained from complete experimental groups, i.e. those groups keeping the initial number of animals, n=8-10.

[1] = Day 2.0, iv Days 0, 7 and 14, compound C 3.0 mg/kg, 4-S […], 12-S […]
[2] = Day 5.0, iv Days 0, 7 and 14, compound C 3.0 mg/kg, 4-S […], 12-S […]
[3] = Day 7.0, iv Days 0, 7 and 14, compound C 3.0 mg/kg, 4-S […], 12-S […]
[4] = Day 9.0, iv Days 0, 7 and 14, compound C 3.0 mg/kg, 4-S […], 12-S […]
[5] = Day 12.0, iv Days 0, 7 and 14, compound C 3.0 mg/kg, 4-S […], 12-S […]
[6] = Day 14.0, iv Days 0, 7 and 14, compound C 3.0 mg/kg, 4-S […], 12-S […]
[7] = Day 16.0, iv Days 0, 7 and 14, compound C 3.0 mg/kg, 4-S […], 12-S […]
[8] = Day 19.0, iv Days 0, 7 and 14, compound C 3.0 mg/kg, 4-S […], 12-S […]
[9] = Day 21.0, iv Days 0, 7 and 14, compound C 3.0 mg/kg, 4-S […], 12-S […]
[10] = Day 23.0, iv Days 0, 7 and 14, compound C 3.0 mg/kg, 4-S […], 12-S […]

## COc1c(C)cc2c(c1O)[C@@H]1[C@@H]3[C@@H]4SC[C@]5(N[C@H](CN)Cc6c5[nH]c5ccccc65)C(=O)OC[C@@H](c5c6c(c(C)c(OC(C)=O)c54)OCO6)N3[C@@H](O)[C@H](C2)N1C [Compound 12-S]
MDA-MB-231 tumors; [1]
  Median Tumor Volume: 229.9 mm^3
MDA-MB-231 tumors; [2]
  Median Tumor Volume: 290.5 mm^3
MDA-MB-231 tumors; [3]
  Median Tumor Volume: 398.2 mm^3
MDA-MB-231 tumors; [4]
  Median Tumor Volume: 508.9 mm^3
MDA-MB-231 tumors; [5]
  Median Tumor Volume: 602.5 mm^3
MDA-MB-231 tumors; [6]
  Median Tumor Volume: 751.0 mm^3
MDA-MB-231 tumors; [7]
  Median Tumor Volume: 977.7 mm^3
MDA-MB-231 tumors; [8]
  Median Tumor Volume: 1252.6 mm^3
MDA-MB-231 tumors; [9]
  Median Tumor Volume: 1560.7 mm^3
MDA-MB-231 tumors; [10]
  Median Tumor Volume: 2005.9 mm^3
MDA-MB-231 tumors; Day 26.0, iv Days 0, 7 and 14, compound C 3.0 mg/kg, 4-S […], 12-S […]
  Median Tumor Volume: 2066.2 mm^3
A2780 tumors; [1]
  Median Tumor Volume: 262.1 mm^3
A2780 tumors; [2]
  Median Tumor Volume: 628.6 mm^3
A2780 tumors; [3]
  Median Tumor Volume: 976.3 mm^3
A2780 tumors; [4]
  Median Tumor Volume: 1387.5 mm^3
A2780 tumors; [5]
  Median Tumor Volume: 1666.0 mm^3
HGC27 tumors; [1]
  Median Tumor Volume: 411.9 mm^3
HGC27 tumors; [2]
  Median Tumor Volume: 834.1 mm^3
HGC27 tumors; [3]
  Median Tumor Volume: 1176.6 mm^3
HGC27 tumors; [4]
  Median Tumor Volume: 1531.6 mm^3
HGC27 tumors; [5]
  Median Tumor Volume: 2030.2 mm^3
HT1080 tumors; [1]
  Total diameter (tumor + leg): 8.2 mm
HT1080 tumors; [2]
  Total diameter (tumor + leg): 8.6 mm
HT1080 tumors; [3]
  Total diameter (tumor + leg): 9.5 mm
HT1080 tumors; [4]
  Total diameter (tumor + leg): 10.0 mm
HT1080 tumors; [5]
  Total diameter (tumor + leg): 11.2 mm
HT1080 tumors; [6]
  Total diameter (tumor + leg): 11.7 mm
HT1080 tumors; [7]
  Total diameter (tumor + leg): 12.7 mm
HT1080 tumors; [8]
  Total diameter (tumor + leg): 13.5 mm
HT1080 tumors; [9]
  Total diameter (tumor + leg): 14.4 mm
HT1080 tumors; [10]
  Total diameter (tumor + leg): 16.5 mm
H460 tumors; [1]
  Median Tumor Volume: 460.5 mm^3
H460 tumors; [2]
  Median Tumor Volume: 922.4 mm^3
H460 tumors; [3]
  Median Tumor Volume: 1252.1 mm^3
H460 tumors; [4]
  Median Tumor Volume: 1409.4 mm^3
H460 tumors; [5]
  Median Tumor Volume: 1531.7 mm^3

## COc1c(C)cc2c(c1O)[C@@H]1[C@@H]3[C@@H]4SC[C@]5(N[C@H](CO)Cc6c5oc5ccccc65)C(=O)OC[C@@H](c5c6c(c(C)c(OC(C)=O)c54)OCO6)N3[C@@H](O)[C@H](C2)N1C [Compound 39-S]
MDA-MB-231 tumors; Day 2
  Median Tumor Volume: 209.3 mm^3
MDA-MB-231 tumors; Day 5
  Median Tumor Volume: 290.9 mm^3
MDA-MB-231 tumors; Day 7
  Median Tumor Volume: 301.8 mm^3
MDA-MB-231 tumors; Day 9
  Median Tumor Volume: 300.8 mm^3
MDA-MB-231 tumors; Day 12
  Median Tumor Volume: 278.7 mm^3
MDA-MB-231 tumors; Day 14
  Median Tumor Volume: 249.7 mm^3
MDA-MB-231 tumors; Day 16
  Median Tumor Volume: 243.6 mm^3
MDA-MB-231 tumors; Day 19
  Median Tumor Volume: 248.3 mm^3
MDA-MB-231 tumors; Day 21
  Median Tumor Volume: 250.0 mm^3
MDA-MB-231 tumors; Day 23
  Median Tumor Volume: 260.3 mm^3
MDA-MB-231 tumors; Day 26
  Median Tumor Volume: 304.9 mm^3
MDA-MB-231 tumors; Day 28
  Median Tumor Volume: 337.1 mm^3
MDA-MB-231 tumors; Day 30
  Median Tumor Volume: 451.3 mm^3
MDA-MB-231 tumors; Day 33
  Median Tumor Volume: 584.1 mm^3
MDA-MB-231 tumors; Day 35
  Median Tumor Volume: 683.4 mm^3
MDA-MB-231 tumors; Day 37
  Median Tumor Volume: 784.7 mm^3
MDA-MB-231 tumors; Day 40
  Median Tumor Volume: 937.4 mm^3
MDA-MB-231 tumors; Day 42
  Median Tumor Volume: 1060.5 mm^3
MDA-MB-231 tumors; Day 44
  Median Tumor Volume: 1170.5 mm^3
MDA-MB-231 tumors; Day 47
  Median Tumor Volume: 1112.9 mm^3
MDA-MB-231 tumors; Day 49
  Median Tumor Volume: 1138.6 mm^3
MDA-MB-231 tumors; Day 51
  Median Tumor Volume: 1283.2 mm^3
MDA-MB-231 tumors; Day 54
  Median Tumor Volume: 1415.1 mm^3
MDA-MB-231 tumors; Day 56
  Median Tumor Volume: 1518.7 mm^3
MDA-MB-231 tumors; Day 58
  Median Tumor Volume: 1728.5 mm^3
MDA-MB-231 tumors; Day 61
  Median Tumor Volume: 2017.9 mm^3
A2780 tumors; Day 2
  Median Tumor Volume: 206.5 mm^3
A2780 tumors; Day 5
  Median Tumor Volume: 163.4 mm^3
A2780 tumors; Day 7
  Median Tumor Volume: 298.6 mm^3
A2780 tumors; Day 9
  Median Tumor Volume: 317.4 mm^3
A2780 tumors; Day 12
  Median Tumor Volume: 378.2 mm^3
A2780 tumors; Day 14
  Median Tumor Volume: 668.5 mm^3
A2780 tumors; Day 16
  Median Tumor Volume: 853.5 mm^3
A2780 tumors; Day 19
  Median Tumor Volume: 1415.5 mm^3
A2780 tumors; Day 21
  Median Tumor Volume: 1519.2 mm^3
A2780 tumors; Day 23
  Median Tumor Volume: 1666.0 mm^3
A2780 tumors; Day 30
  Median Tumor Volume: 2025.0 mm^3
HGC27 tumors; Day 2
  Median Tumor Volume: 356.3 mm^3
HGC27 tumors; Day 5
  Median Tumor Volume: 469.7 mm^3
HGC27 tumors; Day 7
  Median Tumor Volume: 467.8 mm^3
HGC27 tumors; Day 9
  Median Tumor Volume: 575.2 mm^3
HGC27 tumors; Day 12
  Median Tumor Volume: 611.1 mm^3
HGC27 tumors; Day 14
  Median Tumor Volume: 637.3 mm^3
HGC27 tumors; Day 16
  Median Tumor Volume: 690.4 mm^3
HGC27 tumors; Day 19
  Median Tumor Volume: 701.8 mm^3
HGC27 tumors; Day 21
  Median Tumor Volume: 697.4 mm^3
HGC27 tumors; Day 23
  Median Tumor Volume: 715.5 mm^3
HGC27 tumors; Day 26
  Median Tumor Volume: 898.1 mm^3
HGC27 tumors; Day 28
  Median Tumor Volume: 1163.4 mm^3
HGC27 tumors; Day 30
  Median Tumor Volume: 1409.3 mm^3
HGC27 tumors; Day 33
  Median Tumor Volume: 1450.5 mm^3
HGC27 tumors; Day 35
  Median Tumor Volume: 1708.5 mm^3
HGC27 tumors; Day 37
  Median Tumor Volume: 1804.4 mm^3
HGC27 tumors; Day 40
  Median Tumor Volume: 2075.2 mm^3
HT1080 tumors; Day 2
  Total diameter (tumor + leg): 7.9 mm
HT1080 tumors; Day 5
  Total diameter (tumor + leg): 6.4 mm
HT1080 tumors; Day 7
  Total diameter (tumor + leg): 6.8 mm
HT1080 tumors; Day 9
  Total diameter (tumor + leg): 6.9 mm
HT1080 tumors; Day 12
  Total diameter (tumor + leg): 6.6 mm
HT1080 tumors; Day 14
  Total diameter (tumor + leg): 6.4 mm
HT1080 tumors; Day 16
  Total diameter (tumor + leg): 6.8 mm
HT1080 tumors; Day 19
  Total diameter (tumor + leg): 7.0 mm
HT1080 tumors; Day 21
  Total diameter (tumor + leg): 7.0 mm
HT1080 tumors; Day 23
  Total diameter (tumor + leg): 8.5 mm
HT1080 tumors; Day 27
  Total diameter (tumor + leg): 10.8 mm
HT1080 tumors; Day 33
  Total diameter (tumor + leg): 14.3 mm
HT1080 tumors; Day 35
  Total diameter (tumor + leg): 15.3 mm
HT1080 tumors; Day 37
  Total diameter (tumor + leg): 18.0 mm
H460 tumors; Day 2
  Median Tumor Volume: 314.4 mm^3
H460 tumors; Day 5
  Median Tumor Volume: 584.1 mm^3
H460 tumors; Day 7
  Median Tumor Volume: 831.2 mm^3
H460 tumors; Day 9
  Median Tumor Volume: 841.0 mm^3
H460 tumors; Day 12
  Median Tumor Volume: 1008.0 mm^3
H460 tumors; Day 14
  Median Tumor Volume: 1309.8 mm^3
H460 tumors; Day 16
  Median Tumor Volume: 1470.0 mm^3
H460 tumors; Day 19
  Median Tumor Volume: 2025.0 mm^3
